Experimental data taken from patent US9814727B2, “Piperazine phenothiazine derivatives for treating spasticity” (UNIVERSITE D'AIX-MARSEILLE, priority 2014, dated 2017).

Columns and labels:
KCC2 = assay: Western blot of KCC2 in total cell lysate of HEK KCC2 cells; format: cell-based; conditions: 10 μM, 30 min of cell treatment, HEK KCC2 whole cell lysate
Experimental: Wild-type or KCC2-expressing Human Embryonic Kidney (HEK) 293 cells (provided by Prof. Eric Delpire Department of Anesthesiology, Vanderbilt University Medical Center, Nashville, Tenn.) were grown up to 80-90% confluence in DMEM/Ham's F-12 (1:1) (Life technologies, Carlsbad, Calif., USA) supplemented with 10% FBS (Life technologies), 50 units/mL penicillin, and 50 µg/mL streptomycin (Life technologies). KCC2-expressing clones were under puromycin selection (20 μg/ml, Life technologies).
Wild-type and KCC2-expressing HEK293 cells or NSC-34 were harvested and homogenised in lysis buffer (PBS containing 1% Igepal CA-630, 0.1% SDS, 10 mM sodium pyrophosphate, 10 mM NaF, 10 mM NaVO4, 10 mM iodoacetamide and cocktail protease inhibitors and centrifugated at 18000 g for 30 minutes at 4° C. Protein concentration in supernatants was determined using DC protein assay (Bio-rad). Same amounts of total proteins were separated in 6% or 7% SDS PAGE and transferred onto PVDF membrane. Once blocked in Tris Buffer Saline 0.05% Tween 5% non-fat dry milk, membranes were probes over night at 4° C. with KCC2 antibody (1/1000 dilution, Merck-Millipore, Billerica, Mass., USA), or anti-phospho-serine940 KCC2 (1/1000 dilution, PhosphoSolutions) or anti-Actin antibody (1/500 dilution, Sigma Aldrich). […] Signal intensity was measured with the image analysis software Image lab (Bio-Rad, Hercules, Calif., USA). […]

lumbar motoneurons (MNs) = assay: Intracellular recordings of lumbar motoneurons in the in vitro spinal cord preparation (EIPSP); format: cell-based, rat; conditions: 10 μM
Source text: Spinal cords isolated from neonatal rats on post natal day 4 or 5 were dissected together with spinal roots. Briefly, after decapitation and evisceration, the spinal cord was exposed by dorsal laminectomy and acute removal of the dura in a cold artificial cerebrospinal fluid (ACSF; containing (in mM): 130 NaCl, 4 KCl, 3.75 CaCl2, 1.3 MgSO4, 0.58 NaH2PO4, 25 NaHCO3 and 10 glucose (all compounds were from Sigma); oxygenated with 95% O2/5% CO2, pH=7.4). The cord, from sacral segments up to T8, was then removed from the vertebral column together with peripheral roots. The preparation was then transferred to the recording chamber where it was pinned down, ventral side up, in sylgard (Dow-Corning; USA)-covered recording chamber, and continuously perfused with the ACSF solution. After removing the pia, we recorded lumbar motoneurons (MNs) intracellularly using glass microelectrodes filled with 2 M K-acetate (70 to 100-MΩ resistance). We recorded intracellular potentials in the discontinuous current-clamp (DCC) mode (Axoclamp 2B amplifier; Digidata 1200 interface; pClamp9 software; Axon Instruments, Sunnyvale, Calif., USA). We used glass suction electrode to stimulate the ipsilateral ventral funiculus 2 to 3 segments rostral to the recorded one. Such stimulations induced GABAA- and Gly-mediated Inhibitory Postsynaptic Potentials (IPSPs) in the presence of DL-2-amino-5-phosphonovaleric acid (DL-APV, 50 μM) and 6-cyano-7-nitroquinoxaline-2,3-dione (CNQX, 10 μM) (Bos et al., 2013; Boulenguez et al., 2010; Jean-Xavier et al., 2006). We recorded IPSPs at various holding potentials (500-ms-long current pulses) and collected at least 20 values for each MN. We measured and plotted amplitudes of IPSPs against holding potentials and obtained EIPSP from the regression line.
In the in vitro spinal cord preparation, isolated from neonatal rat, a way to investigate KCC2 function is provided by recording motoneurons (MNs) intracellularly and measuring the chloride equilibrium potential that is given by the reversal potential of inhibitory synaptic potentials (EIPSP). The more hyperpolarized the value of EIPSP, the lower the intracellular concentration of chloride ions and, as a result, the stronger the KCC2 function. The inventors have examined the effect of 10 μM Prochlorperazine (2) on EIPSP of lumbar MNs in P4-6 rats (FIG. 3). It hyperpolarized EIPSP within 5-10 min and measurements were done 20-25 min after the onset of Prochlorperazine (2) application.

[1] = system: Hoffmann reflex (H-reflex); assay: Assessment of spasticity following spinal cord injury (H reflex); format: in vivo, rat; conditions: 10 μg/kg i.v.
Experimental: Thoracic spinal section in rats was used as a model of SCI. Adult female Wistar Rats (225/250 g Charles River) were anaesthetized intraperitoneally with 50 mg/kg ketamine (Imalgen®, Merial, Duluth, Ga., USA) and 0.25 mg/kg Medetomidine (Domitor®, Janssen Pharmaceutica, Beerse, Belgium). The antibiotic Amoxycyline (Duphamox LA®, Pfizer, 150 mg/kg) was injected subcutaneously before the surgery. The skin was cut longitudinally over T8-T10 vertebra and a local anesthetic (2% Procaine hydrochloride, Pharmy H, Saint-Germain-en-Laye, France) was injected intramuscularly before cuting the paravertebral muscles. A laminectomy was performed at vertebral segment T9. The spinal cord was transected with microscissors at the level of the T8 spinal segment. Finally, paravertebral muscles and skin were sutured and rats were treated with buprenorphine for analgesia (1 injection before awakening from anaesthesia and 4 more injections over the next 48 h period). […]
At day 29 post lesion, the H reflex in the rats under ketamine anesthesia (100 mg/kg, i.p.) were measured using a pair of stainless steel needle electrodes transcutaneously inserted into the vicinity of the tibial nerve stimulation. […]
The H reflex was measured three times at frequencies of 0.2 Hz 1 Hz, 2 Hz and 5 Hz to have their baseline values. […] The H reflex was measured each 20 minutes, five times at frequencies of 0.2 Hz 1 Hz, 2 Hz and 5 Hz

For `CN1CCN(CCCN2c3ccccc3Sc3ccc(Cl)cc32)CC1` [compound 2, 2-chloro-10-[3-(4-methyl-1-piperazinyl)propyl]-10H-phenothiazine], the “phosphorylated KCC2 on serine 940” value (KCC2) was “increased”, the “total KCC2 protein level (monomers+oligomers)” value (KCC2) was “increased” and the “change of driving force (EIPSP-Vrest)” value (lumbar motoneurons (MNs); 20-25 min, n=6) was −3.5 mV. For the same compound, the “effect on resting membrane potential (Vrest)” value (lumbar motoneurons (MNs); 20-25 min, n=6) was “no significant impact”, the “hyperpolarizing shift of EIPSP compared to control” value (lumbar motoneurons (MNs); 20-25 min after onset of application, P4-6 rats, n=6) was −3.3 mV and the “time to hyperpolarization of EIPSP” value (lumbar motoneurons (MNs); P4-6 rats) was 5 to 10 min. The “decrease of the H reflex” value ([1]; 80 min after injection, 1, 2 and 5 Hz, adult rats after SCI) was about 30% and the “effect on spasticity after spinal cord injury” value ([1]; 80 minutes, adult rats 4 weeks after SCI) was “reduces spasticity”.
